Results reported in ChEMBL document CHEMBL1151935, “Improvement of pharmacological properties of irreversible thyroid receptor coactivator binding inhibitors” (J Med Chem, 2009).

Assay: in vitro
Conditions: PAMPA, pH 7.4

Structure (SMILES) | Papp
CCCCCCS(=O)(=O)c1cc(Cl)c(C(=O)CCN2CCOCC2)c(Cl)c1 | 470 ×10⁻⁶ cm/s
CCCCCCSc1cc(C)c(C(=O)CCN2CCN(S(=O)(=O)CC)CC2)c(C)c1 | 160 ×10⁻⁶ cm/s
CCCCCCS(=O)(=O)c1ccc(C(=O)CCN2CCN(S(=O)(=O)CC)CC2)c(Cl)c1Cl | 380 ×10⁻⁶ cm/s
CCCCCCSc1ccc(C(=O)CCN2CC2C)c(Cl)c1 (configuration not stated) | 500 ×10⁻⁶ cm/s
CCCCCCOc1ccc(C(=O)CCN(C)C)cc1C(F)(F)F | 930 ×10⁻⁶ cm/s
CCCCCCS(=O)(=O)c1ccc(C(=O)CCN2CCOCC2)c(Cl)c1Cl | 560 ×10⁻⁶ cm/s
CCCCCCS(=O)(=O)c1cc(Cl)c(C(=O)CCN2CCN(S(=O)(=O)CC)CC2)cc1Cl | 730 ×10⁻⁶ cm/s
CCCCCCOc1cc(Cl)c(C(=O)CCN2CC2C)cc1Cl (configuration not stated) | 810 ×10⁻⁶ cm/s
CCCCCCSc1ccc(C(=O)CCN2CCN(S(=O)(=O)CC)CC2)c(Cl)c1Cl | 30 ×10⁻⁶ cm/s
CCCCCCS(=O)(=O)c1ccc(C(=O)CCN(C)C)cc1 | 780 ×10⁻⁶ cm/s
CCCCCCS(=O)(=O)c1cc(Cl)c(C(=O)CCN(C)C)cc1Cl | 90 ×10⁻⁶ cm/s
CCCCCCOc1cccc(C(=O)CCN(C)C)c1 | 830 ×10⁻⁶ cm/s
CCCCCCS(=O)(=O)c1ccc(C(=O)CCN2CC2C)c(Cl)c1 (configuration not stated) | 160 ×10⁻⁶ cm/s
CCCCCCSc1ccc(C(=O)CCN2CC2C)c(Cl)c1Cl (configuration not stated) | 70 ×10⁻⁶ cm/s
CCCCCCOc1ccc(C(=O)CCN(C)C)c(S(C)(=O)=O)c1 | 850 ×10⁻⁶ cm/s
CCCCCCOc1ccc(C(=O)CCN(C)C)cc1Br | 460 ×10⁻⁶ cm/s
CCCCCCOc1ccc(C(=O)CCN(C)C)cc1S(C)(=O)=O | 730 ×10⁻⁶ cm/s
CCCCCCOc1ccc(C(=O)CCN2CC2C)c(Cl)c1 (configuration not stated) | 870 ×10⁻⁶ cm/s
CCCCCCS(=O)(=O)c1cc(Cl)c(C(=O)CCN2CCN(C(C)=O)CC2)c(Cl)c1 | 480 ×10⁻⁶ cm/s
CCCCCS(=O)(=O)Nc1ccc(C(=O)CCN(C)C)cc1 | 50 ×10⁻⁶ cm/s
CCCCCCOc1ccc(C(=O)CCN2CCOCC2)c(Cl)c1Cl | 930 ×10⁻⁶ cm/s
CCCN1CCN(c2ccc(C(=O)CCN(C)C)cc2)CC1 | 320 ×10⁻⁶ cm/s

Structure (SMILES) | Papp
CCCCCCOc1ccc(C(=O)C(CN(C)C)c2ccccc2)cc1 (configuration not stated) | 910 ×10⁻⁶ cm/s
CCCCCCS(=O)(=O)c1cc(Cl)c(C(=O)CCN2CC2C)c(Cl)c1 (configuration not stated) | 980 ×10⁻⁶ cm/s
CCCCCCOc1ccc2c(c1)OCC(CN(C)C)C2=O (configuration not stated) | 700 ×10⁻⁶ cm/s
CCCCCCS(=O)(=O)c1cc(Cl)c(C(=O)CCN2CCOCC2)cc1Cl | 680 ×10⁻⁶ cm/s
CCCCNC(=O)Nc1ccc(C(=O)CCN(C)C)cc1 | 10 ×10⁻⁶ cm/s
CCCCCCS(=O)(=O)c1cc(Cl)c(C(=O)CCN2CCNC(=O)C2)c(Cl)c1 | 430 ×10⁻⁶ cm/s
CCCCCCOc1ccc(C(=O)CCN(C)C)c(C)c1 | 750 ×10⁻⁶ cm/s
CCCCCCS(=O)(=O)c1cc(Cl)c(C(=O)CCN(C)C)c(Cl)c1 | 170 ×10⁻⁶ cm/s
CCCCCCOc1ccc(C(=O)CCN(C)C)c(Br)c1 | 80 ×10⁻⁶ cm/s
CCCCCCS(=O)(=O)c1cc(Cl)c(C(=O)CCN2CCNC(=O)C2)cc1Cl | 540 ×10⁻⁶ cm/s
CCN1CCC(Cc2ccc(C(=O)CCN(C)C)cc2)CC1 | 140 ×10⁻⁶ cm/s
CCCCCCS(=O)(=O)c1cc(Cl)c(C(=O)CCN2CC2C)cc1Cl (configuration not stated) | 260 ×10⁻⁶ cm/s
CCCCCCOc1ccc(C(=O)CCN(C)C)cc1C(C)(C)C | 190 ×10⁻⁶ cm/s
CCCCCCOc1cc(Cl)c(C(=O)CCN2CCOCC2)c(Cl)c1 | > 1 ×10⁻⁶ cm/s
CCCCCCSc1cc(Cl)c(C(=O)CCN(C)C)cc1Cl | 330 ×10⁻⁶ cm/s
CCCCCCOc1ccc(C(=O)CCN(C)C)cc1OC | 950 ×10⁻⁶ cm/s
CCCCCCOc1ccc(C(=O)CCN2CC2C)c(Cl)c1Cl (configuration not stated) | 370 ×10⁻⁶ cm/s
CCCCCC(=O)Nc1ccc(C(=O)CCN(C)C)cc1 | 560 ×10⁻⁶ cm/s
CCCCCCOc1ccc(C(=O)CCN(C)C)c(C(F)(F)F)c1 | 500 ×10⁻⁶ cm/s
CCCCCCS(=O)(=O)c1ccc(C(=O)CCN2CCOCC2)c(Cl)c1 | 760 ×10⁻⁶ cm/s
CCCCCCOc1ccc(C(=O)CCNc2ccccc2)cc1 | 0.2 ×10⁻⁶ cm/s
CCCCCCS(=O)(=O)c1ccc(C(=O)CCN2CCN(S(=O)(=O)CC)CC2)c(Cl)c1 | 300 ×10⁻⁶ cm/s

Structure (SMILES) | Papp
CCCCCCOc1ccc2c(c1)CC(CN(C)C)C2=O (configuration not stated) | 230 ×10⁻⁶ cm/s
CCCCCCSc1cc(Cl)c(C(=O)CCN2CCN(S(=O)(=O)CC)CC2)c(Cl)c1 | 50 ×10⁻⁶ cm/s
CCCCCCS(=O)(=O)c1ccc(C(=O)CCN2CCN(C(C)=O)CC2)c(Cl)c1 | 360 ×10⁻⁶ cm/s
CCCCCCOc1ccc(C(=O)CCN(CCCC)CCCC)cc1 | 560 ×10⁻⁶ cm/s
CCCCCCOc1ccc2c(c1)CCC(CN(C)C)C2=O (configuration not stated) | 710 ×10⁻⁶ cm/s
CCCCCCOc1ccc(C(=O)CCN2CCN(S(=O)(=O)CC)CC2)c(Cl)c1Cl | > 1 ×10⁻⁶ cm/s
CCCCCCS(=O)(=O)c1ccc(C(=O)CCN(C)C)c(Cl)c1Cl | 220 ×10⁻⁶ cm/s
CCCCCCOc1cc(C(C)C)c(C(=O)CCN(C)C)cc1C | 860 ×10⁻⁶ cm/s
CCCCCCOc1cc(C)c(C(=O)CCN2CC2C)c(C)c1 (configuration not stated) | 930 ×10⁻⁶ cm/s
CCCCCCS(=O)(=O)c1ccc(C(=O)CCN2CC2C)c(Cl)c1Cl (configuration not stated) | 440 ×10⁻⁶ cm/s
CCCCCCOc1ccc(C(=O)CCNc2cccc(Cl)c2)cc1 | 2 ×10⁻⁶ cm/s
CCOCCOc1ccc(C(=O)CCN(C)C)cc1 | 160 ×10⁻⁶ cm/s
CCCCCCOc1ccc(C(=O)CCN(C)C)c2ccccc12 | 660 ×10⁻⁶ cm/s
CCCCCCSc1ccc(C(=O)CCN2CCN(S(=O)(=O)CC)CC2)c(Cl)c1 | 740 ×10⁻⁶ cm/s
CCCCCCS(=O)(=O)c1cc(Cl)c(C(=O)CCN2CCN(C(C)=O)CC2)cc1Cl | 670 ×10⁻⁶ cm/s
CCCCCCSc1cc(Cl)c(C(=O)CCN(C)C)c(Cl)c1 | 350 ×10⁻⁶ cm/s
CCCCCCOc1cc(Cl)c(C(=O)CCN2CCN(S(=O)(=O)CC)CC2)c(Cl)c1 | 860 ×10⁻⁶ cm/s
CCCCCCSc1ccc(C(=O)CCN2CCOCC2)c(Cl)c1Cl | 170 ×10⁻⁶ cm/s
CCCCCCS(=O)(=O)c1ccc(C(=O)CCN2CCN(C(C)=O)CC2)c(Cl)c1Cl | 770 ×10⁻⁶ cm/s
CCCCCCSc1ccc(C(=O)CCN(C)C)c(Cl)c1 | 610 ×10⁻⁶ cm/s
CCCCCCOc1ccc(-c2ccc(C(=O)CCN(C)C)cc2)cc1 | 150 ×10⁻⁶ cm/s
CCCCCCOc1c(C)cc(C(=O)CCN(C)C)cc1C | 730 ×10⁻⁶ cm/s

Structure (SMILES) | Papp
CCCCCCSc1ccc(C(=O)CCN(C)C)c(Cl)c1Cl | 140 ×10⁻⁶ cm/s
CCCCCCOc1cc(C)c(C(=O)CCN(C)C)c(C)c1 | 650 ×10⁻⁶ cm/s
CCCCCCOc1cc(Cl)c(C(=O)CCN(C)C)c(Cl)c1 | 700 ×10⁻⁶ cm/s
CCCCCCSc1cc(Cl)c(C(=O)CCN2CC2C)c(Cl)c1 (configuration not stated) | 190 ×10⁻⁶ cm/s
CCCCCCSc1cc(Cl)c(C(=O)CCN2CC2C)cc1Cl (configuration not stated) | 140 ×10⁻⁶ cm/s
CCCCCCOc1ccc(C(=O)CCN(C)C)cc1I | 540 ×10⁻⁶ cm/s
CCCCCCOc1ccc(C(=O)CCN(C)C)c(N(C)C)c1 | 170 ×10⁻⁶ cm/s
CCCCCCOc1cc(Cl)c(C(=O)CCN2CC2C)c(Cl)c1 (configuration not stated) | > 1 ×10⁻⁶ cm/s
CCCCCCSc1cc(Cl)c(C(=O)CCN2CCOCC2)c(Cl)c1 | 10 ×10⁻⁶ cm/s
CCCCCCSc1cc(Cl)c(C(=O)CCN2CCNC(=O)C2)cc1Cl | 810 ×10⁻⁶ cm/s
CCCCCCOc1ccc(C(=O)CCN(C)C)cc1Cc1ccccc1 | 230 ×10⁻⁶ cm/s
CCCCCCS(=O)(=O)c1ccc(C(=O)CCN(C)C)c(Cl)c1 | 380 ×10⁻⁶ cm/s
CCCCCCOc1ccc(C(=O)CCN(C)C)cc1F | 700 ×10⁻⁶ cm/s
CCCCCCSc1cc(Cl)c(C(=O)CCN2CCN(S(=O)(=O)CC)CC2)cc1Cl | 20 ×10⁻⁶ cm/s
CCCCCCS(=O)(=O)c1cc(C)c(C(=O)CCN2CCN(C(C)=O)CC2)c(C)c1 | 470 ×10⁻⁶ cm/s
CCCCCCSc1cc(C)c(C(=O)CCN2CC2C)c(C)c1 (configuration not stated) | 770 ×10⁻⁶ cm/s
CCCCCCNC(=O)c1ccc(C(=O)CCN(C)C)cc1 | 770 ×10⁻⁶ cm/s
CCCCCCS(=O)(=O)c1cc(C)c(C(=O)CCN2CCNC(=O)C2)c(C)c1 | 480 ×10⁻⁶ cm/s
CCCCCCS(=O)(=O)c1ccc(C(=O)CCN2CCNC(=O)C2)c(Cl)c1 | 240 ×10⁻⁶ cm/s
CCCCCCOc1ccc(C(=O)CCN(C)C)cc1-c1ccccc1 | 830 ×10⁻⁶ cm/s
CCCCCCOc1ccc(C(=O)CCN(C)C)c(I)c1 | 270 ×10⁻⁶ cm/s
